For two molecules, remaining binding results are on record in publication PMC5862592, “CDK8/19 inhibition induces premature G1/S transition and ATR-dependent cell death in prostate cancer cells” (Oncotarget, 2018).

Molecules are shown by their SMILES. Read-outs that look alike come from different tables or passages of the source.

What all share (test): biochemical
Common to all, as to set-up: KINOMEscan active site-directed competition binding assay (DiscoveRx), 456 kinases, per cent of control at 300 nM
Holding throughout (settings): read-out: Percent of Control (%)

Test [1] addresses ACVR2B (Homo sapiens, UniProt Q13705). On the procedure:
(§1) Kinase selectivity of T-474 and T-418 was evaluated at 300 nmol/L using a panel of 456 kinases at DiscoveRx (KINOMEscan). The platform employs an active site-directed competition binding assay to quantitatively measure interactions between test compounds and kinases. […] In VCaP prostate cancer cells, treatment with T-474 or T-418 suppressed the phosphorylation of the known CDK8 substrate STAT1 at Ser727 both in the absence and in the presence of IFN-γ (Figure 1B), which stimulates CDK8-mediated STAT1 phosphorylation.

Test [2] deals with PIK3CA(E545A) (Homo sapiens, UniProt P42336, E545A). Here is the method:
as §1

The target in test [3] is CHEK1 (Homo sapiens, UniProt O14757). Here is the method:
as §1

For test [4], the target named is T1, CDK4-cyclinD1 (Homo sapiens, UniProt P11802).
T1 construct: cyclinD1
T1 sequence (P11802 whole entry): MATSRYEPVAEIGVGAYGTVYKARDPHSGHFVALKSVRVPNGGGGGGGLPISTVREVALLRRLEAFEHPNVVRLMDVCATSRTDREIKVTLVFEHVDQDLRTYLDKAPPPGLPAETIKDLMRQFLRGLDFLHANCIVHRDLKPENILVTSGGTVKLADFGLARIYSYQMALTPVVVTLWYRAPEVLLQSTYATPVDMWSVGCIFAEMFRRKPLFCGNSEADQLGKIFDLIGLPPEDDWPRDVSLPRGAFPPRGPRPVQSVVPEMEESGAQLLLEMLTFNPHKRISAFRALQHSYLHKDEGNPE
T1 sequence (P24385 whole entry partner): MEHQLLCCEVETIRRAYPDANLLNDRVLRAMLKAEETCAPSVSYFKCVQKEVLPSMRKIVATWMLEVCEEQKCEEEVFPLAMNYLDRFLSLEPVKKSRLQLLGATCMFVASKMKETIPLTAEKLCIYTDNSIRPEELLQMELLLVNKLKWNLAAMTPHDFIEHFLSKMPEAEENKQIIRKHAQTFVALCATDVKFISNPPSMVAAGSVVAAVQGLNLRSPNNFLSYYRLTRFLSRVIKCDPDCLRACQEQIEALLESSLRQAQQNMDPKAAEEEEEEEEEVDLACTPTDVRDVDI
On the procedure:
as §1

For test [5], the target named is KIT(D816H) (Homo sapiens, UniProt P10721, D816H). Here is the method: as §1
The target of test [6] is BMPR1A (Homo sapiens, UniProt P36894). On the procedure:
as §1

The target in test [7] is T2, MLCK (Homo sapiens, UniProt Q32MK0).
T2 construct: gene MYLK3
Here is the method:
as §1

Test [8] deals with T3, AMPK-alpha2 (Homo sapiens, UniProt P54646).
T3 construct: gene PRKAA2
Here is the method:
as §1

In test [9] the target is CSNK1E (Homo sapiens, UniProt P49674). Here is the method: as §1
The target in test [10] is STK39 (Homo sapiens, UniProt Q9UEW8). Here is the method:
as §1

Test [11] concerns the target MAP4K5 (Homo sapiens, UniProt Q9Y4K4). On the procedure:
as §1

For test [12], the target named is PDPK1 (Homo sapiens, UniProt O15530). Here is the method: as §1
Sequence of PDPK1 (O15530 whole entry): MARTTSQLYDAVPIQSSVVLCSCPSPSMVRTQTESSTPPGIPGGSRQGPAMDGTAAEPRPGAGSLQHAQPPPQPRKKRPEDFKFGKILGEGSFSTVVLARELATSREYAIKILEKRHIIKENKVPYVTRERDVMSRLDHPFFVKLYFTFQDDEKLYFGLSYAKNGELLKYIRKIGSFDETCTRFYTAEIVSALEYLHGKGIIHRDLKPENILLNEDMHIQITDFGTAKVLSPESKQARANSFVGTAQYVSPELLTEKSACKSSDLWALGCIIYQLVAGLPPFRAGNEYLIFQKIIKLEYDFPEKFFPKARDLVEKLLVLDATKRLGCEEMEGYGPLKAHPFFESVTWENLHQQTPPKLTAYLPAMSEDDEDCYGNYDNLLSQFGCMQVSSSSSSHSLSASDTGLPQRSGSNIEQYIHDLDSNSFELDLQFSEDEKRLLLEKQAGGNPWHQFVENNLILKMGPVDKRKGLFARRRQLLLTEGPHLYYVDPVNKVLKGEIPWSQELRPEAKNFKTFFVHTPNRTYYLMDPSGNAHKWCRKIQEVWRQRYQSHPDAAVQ
The target of test [13] is CSF1R (Homo sapiens, UniProt P07333). Here is the method: as §1
Sequence of CSF1R (P07333 whole entry): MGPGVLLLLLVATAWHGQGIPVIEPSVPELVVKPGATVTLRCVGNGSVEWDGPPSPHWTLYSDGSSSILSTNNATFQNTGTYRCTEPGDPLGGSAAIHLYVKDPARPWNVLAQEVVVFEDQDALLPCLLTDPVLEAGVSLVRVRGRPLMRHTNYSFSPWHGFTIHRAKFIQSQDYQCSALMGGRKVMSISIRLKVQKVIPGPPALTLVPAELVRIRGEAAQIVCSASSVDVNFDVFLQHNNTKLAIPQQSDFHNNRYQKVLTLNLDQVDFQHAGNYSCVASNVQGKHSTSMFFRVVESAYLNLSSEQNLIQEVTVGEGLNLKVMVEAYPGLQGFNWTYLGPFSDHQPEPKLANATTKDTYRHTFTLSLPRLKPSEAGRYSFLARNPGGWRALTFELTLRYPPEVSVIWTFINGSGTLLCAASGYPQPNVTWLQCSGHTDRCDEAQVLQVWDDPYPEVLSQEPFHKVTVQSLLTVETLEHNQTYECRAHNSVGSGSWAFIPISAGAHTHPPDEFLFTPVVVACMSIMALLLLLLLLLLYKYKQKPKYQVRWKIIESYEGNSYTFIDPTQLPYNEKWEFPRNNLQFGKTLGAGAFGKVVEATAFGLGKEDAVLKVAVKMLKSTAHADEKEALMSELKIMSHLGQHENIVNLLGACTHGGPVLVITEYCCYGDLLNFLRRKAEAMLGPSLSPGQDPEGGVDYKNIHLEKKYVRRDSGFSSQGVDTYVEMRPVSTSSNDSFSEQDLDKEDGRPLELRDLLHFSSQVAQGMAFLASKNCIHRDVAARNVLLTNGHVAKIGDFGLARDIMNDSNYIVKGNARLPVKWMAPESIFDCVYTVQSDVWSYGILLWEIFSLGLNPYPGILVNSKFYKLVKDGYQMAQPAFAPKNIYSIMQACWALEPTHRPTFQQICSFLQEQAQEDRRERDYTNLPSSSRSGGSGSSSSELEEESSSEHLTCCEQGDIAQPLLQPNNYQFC
Test [14] deals with BRAF(V600E) (Homo sapiens, UniProt P15056, V600E). On the procedure: as §1
Test [15] concerns the target EPHA5 (Homo sapiens, UniProt P54756). On the procedure:
as §1

Test [16] deals with CAMKK1 (Homo sapiens, UniProt Q8N5S9). On the procedure: as §1
For test [17], the target named is T4, RSK1(Kin.Dom.2-C-terminal) (Homo sapiens, UniProt Q15418).
T4 construct: gene RPS6KA1; Kin.Dom.2-C-terminal
On the procedure: as §1

Test [18] deals with CDKL5 (Homo sapiens, UniProt O76039). Here is the method: as §1
Test [19] concerns the target T5, MST3 (Homo sapiens, UniProt Q9Y6E0).
T5 construct: gene STK24
Here is the method:
as §1

In test [20] the target is EPHB3 (Homo sapiens, UniProt P54753). On the procedure: as §1
Test [21] has as its target CDK7 (Homo sapiens, UniProt P50613). Here is the method:
as §1

The target in test [22] is T6, IKK-epsilon (Homo sapiens, UniProt Q14164).
T6 construct: gene IKBKE
On the procedure: as §1

T5 sequence (Q9Y6E0 whole entry): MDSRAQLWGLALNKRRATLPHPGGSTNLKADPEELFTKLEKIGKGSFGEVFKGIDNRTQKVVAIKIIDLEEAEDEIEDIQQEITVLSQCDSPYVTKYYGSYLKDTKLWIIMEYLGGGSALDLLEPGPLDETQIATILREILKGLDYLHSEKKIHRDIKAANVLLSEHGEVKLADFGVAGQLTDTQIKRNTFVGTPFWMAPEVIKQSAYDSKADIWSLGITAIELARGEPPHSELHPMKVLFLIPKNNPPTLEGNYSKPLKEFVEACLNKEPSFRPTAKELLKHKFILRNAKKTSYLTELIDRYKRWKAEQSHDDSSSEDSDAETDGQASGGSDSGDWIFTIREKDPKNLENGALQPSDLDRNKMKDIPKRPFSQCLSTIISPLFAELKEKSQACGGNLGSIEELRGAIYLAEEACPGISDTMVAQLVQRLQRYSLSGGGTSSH
Sequence of EPHA5 (P54756 whole entry): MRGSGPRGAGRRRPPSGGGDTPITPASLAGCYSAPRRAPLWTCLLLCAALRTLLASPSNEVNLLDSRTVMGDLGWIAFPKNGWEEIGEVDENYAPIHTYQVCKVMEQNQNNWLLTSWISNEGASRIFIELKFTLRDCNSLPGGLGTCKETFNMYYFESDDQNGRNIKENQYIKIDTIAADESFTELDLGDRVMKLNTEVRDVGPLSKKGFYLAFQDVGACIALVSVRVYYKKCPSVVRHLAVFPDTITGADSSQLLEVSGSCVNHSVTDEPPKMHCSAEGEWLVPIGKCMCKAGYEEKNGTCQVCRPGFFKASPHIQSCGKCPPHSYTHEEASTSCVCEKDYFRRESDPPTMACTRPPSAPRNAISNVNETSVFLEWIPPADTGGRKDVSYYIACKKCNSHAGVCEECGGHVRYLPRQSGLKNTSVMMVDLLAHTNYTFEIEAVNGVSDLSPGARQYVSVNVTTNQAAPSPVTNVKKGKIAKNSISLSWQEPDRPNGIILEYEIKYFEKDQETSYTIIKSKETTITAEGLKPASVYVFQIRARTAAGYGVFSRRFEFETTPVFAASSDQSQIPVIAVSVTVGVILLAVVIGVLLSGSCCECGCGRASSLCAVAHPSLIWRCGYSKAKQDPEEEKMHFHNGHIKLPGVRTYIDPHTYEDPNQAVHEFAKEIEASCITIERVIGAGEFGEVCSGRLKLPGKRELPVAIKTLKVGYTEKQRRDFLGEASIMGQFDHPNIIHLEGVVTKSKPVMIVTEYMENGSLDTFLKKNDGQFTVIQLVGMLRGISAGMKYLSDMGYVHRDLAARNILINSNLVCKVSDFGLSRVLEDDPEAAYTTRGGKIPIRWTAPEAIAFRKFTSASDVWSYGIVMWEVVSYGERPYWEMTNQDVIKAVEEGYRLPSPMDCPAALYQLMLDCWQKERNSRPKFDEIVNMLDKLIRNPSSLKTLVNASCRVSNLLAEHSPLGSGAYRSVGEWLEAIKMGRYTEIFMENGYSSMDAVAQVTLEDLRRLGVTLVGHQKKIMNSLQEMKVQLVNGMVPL
Sequence of CDK7 (P50613 whole entry): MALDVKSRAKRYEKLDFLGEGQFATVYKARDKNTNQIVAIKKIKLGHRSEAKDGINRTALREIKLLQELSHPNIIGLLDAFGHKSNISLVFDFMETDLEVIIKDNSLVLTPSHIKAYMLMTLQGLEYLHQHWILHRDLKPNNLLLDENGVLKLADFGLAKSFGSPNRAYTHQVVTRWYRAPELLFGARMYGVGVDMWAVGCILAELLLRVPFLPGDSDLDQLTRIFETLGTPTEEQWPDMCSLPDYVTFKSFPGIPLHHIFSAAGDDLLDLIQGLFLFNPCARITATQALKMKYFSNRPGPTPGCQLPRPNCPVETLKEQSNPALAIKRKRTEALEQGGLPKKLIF
Sequence of MAP4K5 (Q9Y4K4 whole entry): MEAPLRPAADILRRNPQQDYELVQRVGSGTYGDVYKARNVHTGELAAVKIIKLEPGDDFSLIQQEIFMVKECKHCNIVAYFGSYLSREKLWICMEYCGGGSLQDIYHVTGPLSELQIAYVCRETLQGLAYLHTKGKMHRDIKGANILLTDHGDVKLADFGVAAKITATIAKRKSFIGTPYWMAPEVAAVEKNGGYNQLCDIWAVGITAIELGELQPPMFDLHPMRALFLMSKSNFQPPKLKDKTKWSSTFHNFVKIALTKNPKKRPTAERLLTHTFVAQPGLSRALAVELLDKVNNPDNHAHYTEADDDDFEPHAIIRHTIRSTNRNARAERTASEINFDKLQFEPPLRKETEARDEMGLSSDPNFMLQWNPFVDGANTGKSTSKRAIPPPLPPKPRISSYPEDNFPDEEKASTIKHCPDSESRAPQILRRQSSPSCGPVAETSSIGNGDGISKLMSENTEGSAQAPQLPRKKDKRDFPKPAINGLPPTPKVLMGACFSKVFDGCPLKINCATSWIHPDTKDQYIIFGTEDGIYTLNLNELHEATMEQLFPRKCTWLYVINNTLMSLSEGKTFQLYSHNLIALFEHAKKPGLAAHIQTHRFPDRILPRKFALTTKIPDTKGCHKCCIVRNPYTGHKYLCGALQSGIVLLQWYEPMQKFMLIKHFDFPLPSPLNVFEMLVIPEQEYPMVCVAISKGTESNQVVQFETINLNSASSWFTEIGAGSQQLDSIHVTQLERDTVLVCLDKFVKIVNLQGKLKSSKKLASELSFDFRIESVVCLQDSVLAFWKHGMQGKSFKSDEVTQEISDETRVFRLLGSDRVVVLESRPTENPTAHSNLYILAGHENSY

With `Cc1ncccc1Oc1sc(C(N)=O)c2c1-c1c(cnn1C)CC2` [T-474, 1-methyl-8-((2-methylpyridin-3-yl)oxy)-4,5-dihydro-1H-thieno[3,4-g]indazole-6-carboxamide], the remaining binding at 0.3 µM was found to be 81% in test [1]; 69% in [2]; 100% in test [3]; 95% in test [4]; 78% in test [5]; 100% in [6]. The remaining binding at 0.3 µM in test [7] was 100%; in test [8], 100%; in test [9], 76%; in [10] it was 100%; in test [11], 70%; in test [12], 70%. In addition, the remaining binding at 0.3 µM is 100% in test [13]; 100% in test [14]; 98% in test [15]; 100% in test [16]; 100% in test [17]; 100% in test [18]. Also, the remaining binding at 0.3 µM in [19], in test [20], in test [21] and in [22] was 100% in each case.
`O=C(/C=C/c1cnccc1-c1ccc(F)cc1)Nc1ccc(CCc2nnco2)cc1` [T-418, (2E)-3-(4-(4-fluorophenyl)pyridin-3-yl)-N-(4-(2-(1,3,4-oxadiazol-2-yl)ethyl)phenyl)acrylamide]: the remaining binding at 0.3 µM in [1] (sheet T-418) was 80%; in test [2] (sheet T-418), 78%; in test [3] (sheet T-418), 100%; in test [4] (sheet T-418) it was 91%; in test [5] (sheet T-418) it was 74%; in [6] (sheet T-418), 79%. Also, the remaining binding at 0.3 µM in test [7] (sheet T-418) came out at 88%; in test [8] (sheet T-418) it was 100%; in test [9] (sheet T-418), 89%; in test [10] (sheet T-418), 100%; in [11] (sheet T-418), 85%; in test [12] (sheet T-418), 64%. Moreover, the remaining binding at 0.3 µM in test [13] (sheet T-418) was found to be 81%; in test [14] (sheet T-418), 100%; in test [15] (sheet T-418) it was 96%; in test [16] (sheet T-418), 100%; in test [17] (sheet T-418), 100%; in test [18] (sheet T-418) it was 88%. Moreover, the remaining binding at 0.3 µM in [19] (sheet T-418) turned out to be 100%; in [20] (sheet T-418), 98%; in [21] (sheet T-418), 100%; in [22] (sheet T-418) it was 100%.
